These results are taken from patent publication US20260125357A1, “LACTATE ENHANCING COMPOUNDS AND USES THEREOF” (GLIAPHARM SA, priority 2022, published 2026).

Common to all, as to assay type: in vivo, mouse
One test concerns C57Bl/6J wild-type mice. The test can be described thus: Lactate and glucose biosensors, cerebral extracellular levels in freely moving mice. Particulars: per os, doses 10 to 30 mg/kg, 3 hours, AUC ratio vs vehicle. The method, then:
All experiments were carried out in strict accordance with the Swiss Federal Guidelines for Animal Experimentation and were approved by the Cantonal Veterinary Office for Animal Experimentation (Canton of Geneva, Switzerland). Adult male C57Bl/6J wild-type mice weighting 18-28 g (8 to 12 weeks of age) were used (Charles River Laboratories). Animals were housed in groups of 3-5 in polypropylene cages (30×40×15 cm) with wire mesh top in a temperature (22±2° C.) and humidity (55±15%) controlled environment on a 12-hour light cycle (07.00-19.00 h lights on), except after surgeries when animal were housed individually. The samples (Vehicle or compounds of the invention) were administered per os (gavage) in a solution made of water supplemented with 0.4% hydroxypropyl methylcellulose (HPMC) Methocel 4 KM (w/v) and 0.25% Tween-20 (v/v), as previously described (Thackaberry et al., 2010, Toxicol Sci., 117(2):485-92). Concentrations of the compounds tested ranged from 3 to 30 mg/kg.
Cerebral extracellular levels of L-lactate and D-glucose were monitored in vivo using lactate and glucose biosensors (Pinnacle Technology), respectively, according to the manufacturer's instructions. Cannulae were surgically implanted in the medial prefrontal cortices (coordinates: −1.0 mm (to bregma), lateral+/−1.0 mm (to mideline), ventral −1.0 mm (to dura))) of isoflurane-anesthetized mice 5 to 7 days prior experiment. After surgery, mice were monitored closely and received analgesic treatment for at least 4 days. After mice had fully recovered from surgery, compounds of the invention of vehicle were administered per os as previously described and cerebral levels of extracellular lactate and glucose were dynamically recorded for 6 hours using biosensors. Mice were administered vehicle alone first, followed 3 hours later by vehicle or Compounds of the Invention. Concentrations of cerebral extracellular lactate and glucose were calculated from the biosensor electric signals using post-calibration values. […] Area Under the Curve (AUC) of lactate and glucose concentration curves were calculated using Graphad Prism and the ratio of AUC after drug over Vehicle administration was calculated. Extracellular concentrations of lactate and glucose were measured in real time in freely moving animals for 3 hours after administration of Vehicle or compounds (1) to (4) at doses ranging from 10 to 30 mg/kg (FIG. 5).

Test [1] has as its system GLUT1-DS transgenic mice. The test can be described thus: Lactate and glucose biosensors in GLUT1-DS transgenic mice. The conditions noted are these: oral 10 mg/kg, vs vehicle. The text has this: (§1) Heterozygous transgenic mice on 129/SvJ genetic background in which glucose transporter 1 (GLUT1) has been knocked down were used (GLUT1(+/−)) (Wang et al., 2016, Human Molecular Genetics, 15(7)). GLUT1-deficiency syndrome (GLUT1-DS) is a prototypic hypometabolic diseases caused by the mutation of GLUT1 and decreased levels of glucose and lactate in the brain (Tang et al., 2019, Annals of Clinical and Translational Neurology 6(9)). Mating colonies were composed of wild-type female mice and GLUT1-DS male mice, or GLUT1-DS female mice and wild-type male mice. F1 pups were genotyped after ear punching at weaning using PCR to determine genotype. Mice of 2 to 3 months of age were used.
Cerebral extracellular levels of lactate and glucose were monitored in vivo in GLUT1-DS transgenic male mice and wild-type (WT) male littermates using lactate and glucose biosensors (Pinnacle Technology), according to the manufacturer's instructions. […] After surgery, mice were monitored closely and received analgesic treatment for at least 4 days. After mice had fully recovered from surgery, compounds of the invention or vehicle were administered per os as previously described and cerebral levels of extracellular lactate or glucose were dynamically recorded for 6 hours using lactate or glucose biosensors, respectively. […]

Test [2] relates to Wild-type (WT) and GLUT1-DS transgenic mice. As to the kind of experiment: Grip strength test in WT and GLUT1-DS transgenic mice. The conditions noted are these: 10 mg/kg, after rotarod session.
Text: as §1
Motor strength was measured on the grip strength test (Bioseb) after rotarod session. Wild-type (WT) and GLUT1-DS transgenic mice were placed with 4 paws on the grid and maximal grip strength was recorded over 2 sessions with 5 minutes apart. Maximal grip strength over the 2 sessions was recorded.
For orientation: The rotarod test checks motor coordination on a turning rod.

The test system of test [3] is GLUT1-DS transgenic mice. As to the kind of experiment: Rotarod motor function in GLUT1-DS transgenic mice. The conditions noted are these: single administration 10 mg/kg, 20 min before rotarod.
Text: as §1
Motor function was measured in wild-type (WT) and GLUT 1-DS transgenic mice in the rotarod after single administration of Veh. or compound (1) or (2) (10 mg/kg) 20 min before rotarod. Rotarod testing consisted in placing the mouse on an accelerating rotating rod (4 to 40 r.p.m.) during a maximum of 300 seconds. 3 consecutive sessions with 15 min apart were performed. Latency for the mouse to fall from the rod was recorded and the maximal latency over the 3 trials was used as a measure of motor function.

Regarding `COc1cc2ccnc(Nc3ccc(S(C)(=O)=O)cc3)c2cc1OC` [Compound 2, 6,7-dimethoxy-N-(4-methylsulfonylphenyl)isoquinolin-1-amine], the “extracellular glucose levels in the brain” value in the test on C57Bl/6J wild-type mice is “significantly increases extracellular glucose levels”; in the test on GLUT1-DS transgenic mice [1] it was “significantly increases”. The “extracellular lactate levels in the brain” value is “significantly increases extracellular lactate levels” in the test with C57Bl/6J wild-type mice and “significantly increases extracellular lactate” in the test on GLUT1-DS transgenic mice [1]. In test [2], the “muscle strength (grip strength)” value is on record as “did not lead to any difference on muscle strength”. Further, the “rotarod performance (latency to fall)” value in the test with GLUT1-DS transgenic mice [3] was “increased rotarod performance”.
